# Test results: US5110796A, “Prophylactic and therapeutic agents for cataracts” (priority 1988, dated 1992)
# Counter-ions that a name gives are not always drawn.
# Legend:
# [1] = test system: mice; conditions: intraperitoneal injection to mice
# [2] = test system: X-ray induced cataracts
# Protocol: Four-week old SLC Wistar rats are divided into three groups having ten animals in each group; the first group is a normal control group. The second group is an X-ray irradiated control group which is administered intraperitoneally 1 ml/kg of physiological saline solution three times a week after X-ray irradiation. For the third group, 20 mg/kg of glutathione monoisopropyl ester sulfate is administered intraperitoneally three times a week after X-ray irradiation. X-ray irradiation is carried out by irradiating the cephalic portion of conscious rats at 1,000 rad.
# After X-ray irradiation, the lens are monitored every two weeks for opacity with a slit lamp. […] When the conditions of lens of the X-ray irradiated control group (the second group) reaches level IV or more (at 28 weeks), the tests are finished. Then the lens are extracted and measured for biochemical parameters [amounts of nonprotein-SH (Ellman's method), amounts of Na^+ /K^+ and Ca^++ (Atomic absorption method)].
compound,measurement,setting,value
"CC(C)OC(=O)CNC(=O)[C@H](CS)NC(=O)CC[C@H](N)C(=O)O [glutathione monoisopropyl ester sulfate, isopropylγ-L-glutamyl-L-cysteinylglycinate]",acute toxicity (LD50),[1],approximately 5.3 g/kg
same,"share of the group with II grade lens score (seven grades I to VII, clear to opacitas)","[2]; 20 mg/kg i.p. three times a week after 1,000 rad X-ray irradiation, 28 weeks, in the X-ray irradiated control the V grade is greater than 50%",greater than 50%
same,inhibiting action of cataracts,"[2]; 20 mg/kg i.p. three times a week after X-ray irradiation, rats",outstanding inhibiting action of cataracts
